Tested on: SK-OV-3 cell line
Assay: 5-aza-2′-deoxycytidine treatment of SK-OV-3 cell line, gene expression changes by qRT-PCR
Type: cell-based, Human
[1] = primary cell line SK-OV-3 treated with 5, 10 and 20 μM for 3 days, qRT-PCR normalized to GAPDH

Structure (SMILES): Nc1ncn([C@H]2C[C@H](O)[C@@H](CO)O2)c(=O)n1 [5-aza-2′-deoxycytidine]
- changes in expressions of the three genes (ADAM12, NTN4 and PTGS2) (cell line SK-OV-3, treatment for 3 days, FIGS. 12 to 14): increased
- increase in ADAM12 gene expression (cell line SK-OV-3 treated with 5, 10 and 20 μM for 3 days, qRT-PCR normalized to GAPDH): about 2 fold
- increase in NTN4 gene expression [1]: about 2 fold
- increase in PTGS2 gene expression [1]: about 2 fold

Reference: patent US20160265061A1, “COMPOSITION FOR DIAGNOSING OVARIAN CANCER METASTASIS BY USING CPG METHYLATION IN GENE, AND USE THEREOF” (EWHA UNIVERSITY - INDUSTRY COLLABORATION FOUNDATION, priority 2013, published 2016)
